The structures appear in SMILES notation.

Sequence of AT2 Receptor (AT2R) (P50052 whole entry): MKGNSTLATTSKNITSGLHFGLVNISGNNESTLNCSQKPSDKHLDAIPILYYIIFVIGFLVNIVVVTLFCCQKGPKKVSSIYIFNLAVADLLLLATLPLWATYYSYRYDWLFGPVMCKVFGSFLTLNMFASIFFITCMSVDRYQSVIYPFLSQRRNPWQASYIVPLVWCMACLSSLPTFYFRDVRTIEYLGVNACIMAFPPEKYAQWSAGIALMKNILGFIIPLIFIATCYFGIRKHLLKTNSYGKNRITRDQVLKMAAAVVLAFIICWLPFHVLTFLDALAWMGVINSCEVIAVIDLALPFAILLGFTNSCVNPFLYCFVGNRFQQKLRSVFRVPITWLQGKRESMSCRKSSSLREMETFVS

The target in this experiment is AT2 Receptor (AT2R) (Homo sapiens (Human), UniProt P50052). The experiment in a line: Measurement of inhibitory activity on AT2 receptor (Tag-lite HTRF, Tb-labeled AT2R cells, angiotensin receptor red agonist). It is filed as binding. The conditions noted are these: 1 h room temperature. Here is the method:
Measurement of Inhibitory Activity on AT1 Receptor ([…])/AT2 Receptor (AT2R)
Through the following steps, the inhibitory activity of the compound on AT1R/AT2R (IC50 value) was determined:
1) An appropriate amount of 1×TLB (Tag-lite Buffer) was prepared and well mixed for use.
2) The compound was diluted by 10 times with ddH2O or DMSO. The compound was then dilute to 4 times of the working concentration with 1×TLB and mixed well for use.
3) 8600 nM Tag-lite angiotensin receptor red agonist was diluted to 12 nM (4×Kd) with 1×TLB.
4) 5 ml 1×TLB was taken into a 15 ml centrifuge tube.
5) After thawing 1 tube of Tb-labeled AT1R/AT2R cells in a 37° C. water bath, the cells were quickly transferred to the 1×TLB in step 4), mixed gently, and centrifuged at 1200 g for 5 minutes at room temperature.
6) The supernatant was aspirated gently, and the cells were resuspended and mixed in 2.7 ml 1×TLB, and then placed at room temperature until use.
7) 10 μl cells were added to all test wells, and 5 μl 4× working solution of the compound from step 2) was added to the corresponding test wells. 5 μl 4× Tag-lite angiotensin receptor red agonist well diluted in step 3) was added to all test wells.
8) After leaving the reaction plate at room temperature for 1 h, data were measured and analyzed using Envision HTRF Reader, and the half inhibitory concentration (IC50) of the compound on AT1R/AT2R was calculated with the GraphPad Prism four-parameter equation.
`CN(Cc1csc(Cl)c1)C(=O)N1[C@H]2CC[C@@H]1[C@@H](C(=O)O)N(C(=O)N(c1ccccc1)c1ccccc1)C2` [Compound C186, (1R,2S,5S)-8-(((5-chlorothiophene-3-yl)methyl) (methyl)carbamoyl)-3-(diphenylcarbamoyl)-3,8-diazabicyclo [3.2.1]octane-2-carboxylic acid]: the IC50 amounted to 64.6 nM.
To `Cc1ccc(CN(C)C(=O)N2[C@H]3CC[C@@H]2[C@@H](C(=O)O)N(C(=O)N(c2ccccc2)c2ccccc2)C3)s1` [Compound C203, (1R,2S,5S)-3-(diphenylcarbamoyl)-8-(methyl ((5-methylthiophen-2-yl)methyl)carbamoyl)-3,8-diazabicyclo [3.2.1]octane-2-carboxylic acid] belongs 13.7 nM; to `CN(Cc1ccncc1)C(=O)N1[C@H]2CC[C@@H]1[C@@H](C(=O)O)N(C(=O)N(c1ccccc1)c1ccccc1)C2` [Compound C125, (1R,2S,5S)-3-(diphenylcarbamoyl)-8-(methyl(pyridine-4-ylmethyl)carbamoyl)-3,8-diazabicyclo [3.2.1]octane-2-carboxylic acid], 19 nM.
To `O=C(O)[C@@H]1[C@H]2CC[C@@H](CN1C(=O)N(c1ccccc1)c1ccccc1)N2C(=O)N1CCCC1c1ccc(Cl)cc1` (stereo in doubt) [Compound C144, (1R,2S,5S)-8-((R)-2-(4-chlorphenyl)pyrrolidine-1-carbonyl)-3-(diphenylcarbamoyl)-3,8-diazabicyclo [3.2.1]octane-2-carboxylic acid] belongs 21.6 nM; to `CCN(Cc1csc2ccccc12)C(=O)N1[C@H]2CC[C@@H]1[C@@H](C(=O)O)N(C(=O)N(c1ccccc1)c1ccccc1)C2` [Compound C245, (1R,2S,5S)-8-((benzo[b]thiophene-3-ylmethyl) (ethyl)carbamoyl)-3-(diphenylcarbamoyl)-3,8-diazabicyclo [3.2.1]octane-2-carboxylic acid], 10.5 nM; to `O=C(NC1CC2CCC1C(C(=O)O)N2C(=O)C(c1ccccc1)c1ccccc1)c1ccccc1` (stereo in doubt) [Compound C286, (1S,3S,4R)-5-benzamido-2-(2,2-diphenylacetyl)-2-azabicyclo[2.2.2]octane-3-carboxylic acid], 760 nM.
Under `CN(Cc1ccc2cc[nH]c2c1)C(=O)N1[C@H]2CC[C@@H]1[C@@H](C(=O)O)N(C(=O)N(c1ccccc1)c1ccccc1)C2` [Compound C249, (1R,2S,5S)-8-(((1H-indole-6-yl)methyl)(methyl)carbamoyl)-3-(diphenylcarbamoyl)-3,8-diazabicyclo [3.2.1]octane-2-carboxylic acid] stands 10.9 nM; under `O=C(O)[C@@H]1[C@H]2CC[C@@H](CN1C(=O)N(c1ccccc1)c1ccccc1)N2C(=O)Cc1c[nH]c2ccccc12` [Compound C259, (1R,2S,5S)-8-(2-(1H-indole-3-yl)acetyl)-3-(diphenylcarbamoyl)-3,8-diazabicyclo [3.2.1]octane-2-carboxylic acid], 245 nM.
As to `CCN(Cc1ccc(Cl)cc1)C(=O)N1[C@H]2CC[C@@H]1[C@@H](C(=O)O)N(C(=O)N(c1ccccc1)c1ccccc1)C2` [Compound C217, (1R,2S,5S)-8-((4-chlorobenzyl) (ethyl)carbamoyl)-3-(diphenylcarbamoyl)-3,8-diazabicyclo [3.2.1]octane-2-carboxylic acid], the IC50 was 9.13 nM.
To `O=C(O)[C@H]1[C@@H]2CC[C@H](CN1C(=O)C(c1ccccc1)c1ccccc1)N2C(=O)C(c1ccccc1)c1ccccc1` [Compound C4, (1S,2R,5R)-3,8-bis (2,2-diphenylacetyl)-3,8-diazabicyclo [3.2.1]octane-2-carboxylic acid] belongs 9.82 nM; to `CC(C)N(Cc1ccccc1)C(=O)N1[C@H]2CC[C@@H]1[C@@H](C(=O)O)N(C(=O)N(c1ccccc1)c1ccccc1)C2` [Compound C152, (1R,2S,5S)-8-(benzyl (isopropyl)carbamoyl)-3-(diphenylcarbamoyl)-3,8-diazabicyclo [3.2.1]octane-2-carboxylic acid], 47.4 nM.
As for `CN(Cc1csc2ccccc12)C(=O)N1[C@H]2CC[C@@H]1[C@@H](C(=O)O)N(C(=O)C(c1ccccc1)c1ccccc1)C2` [Compound C279], the IC50 stood at 24.2 nM.
Take `CCN(Cc1ccccc1Cl)C(=O)N1[C@H]2CC[C@@H]1[C@@H](C(=O)O)N(C(=O)N(c1ccccc1)c1ccccc1)C2` [Compound C212, (1R,2S,SS)-8-((2-chlorobenzyl) (ethyl)carbamoyl)-3-(diphenylcarbamoyl)-3,8-diazabicyclo [3.2.1]octane-2-carboxylic acid]: the IC50 was 9.04 nM.
For the compound `CN(Cc1ccc(Cl)nc1)C(=O)N1[C@H]2CC[C@@H]1[C@@H](C(=O)O)N(C(=O)N(c1ccccc1)c1ccccc1)C2` [Compound C255], the IC50 was 13.8 nM.
Under `CN(Cc1ccccc1)C(=O)N1[C@H]2CC[C@@H]1[C@@H](C(=O)O)N(C(=O)C1(c3ccccc3)CCCCC1)C2` [Compound C120, (1R,2S,5S)-8-(benzyl(methyl)carbamoyl)-3-(1-phenylcyclohexane-1-carbonyl)-3,8-diazabicyclo [3.2.1]octane-2-carboxylic acid] stands 350 nM; under `CN(Cc1ccccn1)C(=O)N1[C@H]2CC[C@@H]1[C@@H](C(=O)O)N(C(=O)N(c1ccccc1)c1ccccc1)C2` [Compound C126, (1R,2S,5S)-3-(diphenylcarbamoyl)-8-(methyl(pyridine-2-ylmethyl)carbamoyl)-3,8-diazabicyclo [3.2.1]octane-2-carboxylic acid], 78 nM; under `O=C(O)[C@@H]1[C@H]2CC[C@@H](CN1C(=O)C(c1ccccc1)c1ccccc1)N2C(=O)OCc1c(F)cccc1F` [Compound C36, (1R,2S,5S)-8-(((2,6-diflurorbenzyl)oxy)carbonyl)-3-(2,2-diphenylacetyl)-3,8-diazabicyclo [3.2.1]octane-2-carboxylic acid], 20.7 nM.
On to `O=C(O)[C@@H]1[C@H]2CC[C@@H](CN1C(=O)N(c1ccccc1)c1ccccc1)N2C(=O)N1CCc2ccccc2C1` [Compound C131, (1R,2S,5S)-3-(diphenylcarbamoyl)-8-(1,2,3,4-tetrahydroisoquinoline-2-carbonyl)-3,8-diazabicyclo [3.2.1]octane-2-carboxylic acid], for which the IC50 is 495 nM.
`CN(Cc1cccc(Cl)c1)C(=O)N1[C@H]2CC[C@@H]1[C@@H](C(=O)O)N(C(=O)N(c1ccccc1)c1ccccc1)C2` [Compound C151, (1R,2S,5S)-8-((3-chlorobenzyl) (methyl)carbamoyl)-3-(diphenylcarbamoyl)-3,8-diazabicyclo [3.2.1]octane-2-carboxylic acid] yielded a half-inhibitory concentration (IC50) of 74.3 nM.
To `CCN(Cc1ccc(Cl)s1)C(=O)N1[C@H]2CC[C@@H]1[C@@H](C(=O)O)N(C(=O)N(c1ccccc1)c1ccccc1)C2` [Compound C281, (1R,2S,5S)-8-(((5-chlorothiophene-2-yl)methyl) (ethyl)carbamoyl)-3-(diphenylcarbamoyl)-3,8-diazabicyclo[3.2.1] octane-2-carboxylic acid] belongs 20.3 nM; to `O=C(O)[C@@H]1[C@H]2CC[C@@H](CN1C(=O)N1c3ccccc3Sc3ccccc31)N2C(=O)C(c1ccccc1)c1ccccc1` [Compound C28, (1R,2S,5S)-8-(2,2-diphenylacetyl)-3-(10H-phenothiazine-10-carbonyl)-3,8-diazabicyclo[3.2.1] octane-2-carboxylic acid], 473 nM.
Under `CCc1ccc(CN(C)C(=O)N2[C@H]3CC[C@@H]2[C@@H](C(=O)O)N(C(=O)N(c2ccccc2)c2ccccc2)C3)cc1` [Compound C164, (1R,2S,5S)-3-(diphenylcarbamoyl)-8-((4-ethylbenzyl) (methyl)carbamoyl)-3,8-diazabicyclo[3.2.1] octane-2-carboxylic acid] stands 4.35 nM; under `O=C(O)[C@@H]1[C@H]2CC[C@@H](CN1C(=O)C(c1ccccc1)c1ccccc1)N2C(=O)N1c2ccccc2C=Cc2ccccc21` [Compound C9, (1R,2S,5S)-8-(5H-dibenzo[b,f]azepine-5-carbonyl)-3-(2,2-diphenylacetyl)-3,8-diazabicyclo [3.2.1]octane-2-carboxylic acid], 107 nM; under `CN(Cc1ccccc1)C(=O)N1[C@H]2CC[C@@H]1[C@@H](C(=O)O)N(C(=O)N(c1ccc(F)cc1)c1ccc(F)cc1)C2` [Compound C129, (1R,2S,5S)-8-(benzyl(methyl)carbamoyl)-3-(bis(4-fluorophenyl)carbamoyl)-3,8-diazabicyclo [3.2.1]octane-2-carboxylic acid], 148 nM.
Under `CCN(Cc1ccsc1)C(=O)N1[C@H]2CC[C@@H]1[C@@H](C(=O)O)N(C(=O)N(c1ccccc1)c1ccccc1)C2` [Compound C207, (1R,2S,5S)-3-(diphenylcarbamoyl)-8-(ethyl (thiophene-3-ylmethyl)carbamoyl)-3,8-diazabicyclo [3.2.1]octane-2-carboxylic acid] stands 10.4 nM; under `O=C(O)[C@@H]1[C@H]2CC[C@@H](CN1C(=O)N(c1ccccc1)c1ccccc1)N2C(=O)N(Cc1ccccc1)CC(F)(F)F` [Compound C128, (1R,2S,5S)-8-(benzyl(2,2,2-trifluoroethyl)carbamoyl)-3-(diphenylcarbamoyl)-3,8-diazabicyclo [3.2.1]octane-2-carboxylic acid], 21.5 nM.

For orientation: IC50 means the concentration that inhibits the measured activity by half. Read a high IC50 as weaker potency in that assay.

Source of the values: patent publication US11453690B2, “Receptor inhibitor, pharmaceutical composition comprising same, and use thereof” (BEIJING TIDE PHARMACEUTICAL CO., LTD., priority 2018, dated 2022).
